Patent publication US9206198B2, “Inhibitors of the renal outer medullary potassium channel” (Merck Sharp & Dohme Corp., priority 2012, dated 2015)

Molecular target: hROMK (hKir1.1) (Homo sapiens (Human), UniProt P48048)
Test: Thallium Flux Assay (ROMK channel functional thallium flux assay, FLIPR-Tetra)
Format: cell-based
Details: HEK293 cells stably expressing hROMK
Description: Cell Culture Conditions— HEK293 cells stably expressing hROMK (hKir1.1) were grown at 37° C. in a 10% CO2 humidified incubator in complete growth media: Dulbecco's Modified Eagle Medium supplemented with non-essential amino acids, Penicillin/Streptomycin/Glutamine, G418 and FBS. At >80% confluency, aspirate the media from the flask and rinse with 10 mL Calcium/Magnesium-free PBS. Add 5 mL of 1× trypsin (prepared in Ca/Mg Free PBS) to T-225 flask and return flask to 37° C./CO2 incubator for 2-3 minutes. To dislodge the cell, gently bang the side of the flask with your hand. Triturate the cells completely and then transfer the cells to 25 mL complete media. Centrifuge at 1,500 rpm for 6 min followed by resuspension in complete growth media and determine cell concentration. For typical re-seeding, 4E6 cells/T-225 flask will attain >80% confluency in 4 days. Under ideal growth conditions and appropriate tissue culture practices, this cell line is stable for 40-45 passages.
FluxOR Kit Components (Invitrogen F10017)
• FluxOR™ Reagent (Component A) • FluxOR™ Assay Buffer (Component B)—10× Concentrate • PowerLoad™ Concentrate (Component C)—100× Concentrate • Probenecid (Component D)—Lyophilized sample is kept at −20° C. Water soluble, 100×after solubilization in 1 mL water. Store at 4° C. • FluxOR™ Chloride-free Buffer (Component E)—5× Concentrate • Potassium sulfate (K2SO4) Concentrate (Component F)—125 mM in water. Store at 4° C. • Thallium sulfate (Tl2SO4) Concentrate (Component G)—50 mM in water. Store at 4° C. • DMSO (dimethyl sulfoxide, Component H)—1 mL (100%) Reagent Preparation: FluxOR Working Solutions • 1000× FluxOR™ Reagent: Reconstitute a vial of component A in 100 μl DMSO; Mix well; Store 10 μl aliquots at −20° C. • 1× FluxOR™ Assay Buffer: Dilute Component B 10-fold with water; Adjust pH to 7.4 with Hepes/NaOH; Filter and store at 4° C. • Probenecid/Assay Buffer: 100 mL of 1× FluxOR™ Assay Buffer; 1 mL of reconstituted component D; Store at 4° C. • Loading Buffer (per microplate): 10 μl 1000× FluxOR™ Reagent; 100 μl component C; 10 mL Probenecid/Assay Buffer • Compound Buffer (per microplate): 20 mL Probenecid/Assay Buffer; 0.3 mM ouabain (10 mM ouabain in water can be stored in amber bottle/aluminum foil at room temperature); Test compound • 1× FluxOR™ Chloride-Free Buffer: Prepare 1× working solution in water. Can be stored at room temperature • Stimulant Buffer (prepared at 5× final concentration in 1× FluxOR™ Chloride-Free Buffer): 7.5 mM Thallium sulfate and 0.75 mM Potassium sulfate (to give a final assay concentration of 3 mM Thallium 0.3 mM Potassium). Store at 4° C. when not in use. If kept sterile, this solution is good for months.
Assay Protocol—The ROMK channel functional thallium flux assay is performed in 384 wells, using the FLIPR-Tetra instrument. HEK-hKir1.1 cells are seeded in Poly-D-Lysine microplates and kept in a 37° C.-10% CO2 incubator overnight. On the day of the experiment, the growth media is replaced with the FluxOR™ reagent loading buffer and incubated, protected from light, at ambient temperature (23-25° C.) for 90 min. The loading buffer is replaced with assay buffer±test compound followed by 30 min incubation at ambient temperature, where the Thallium/Potassium stimulant is added to the microplate.
• 1. Seed HEK-hKir1.1 cells ([…] at 20,000 cells/well) in 384-well PDL coated Microplates • 2. Allow cells to adhere overnight in humidified 37° C./10% CO2 incubator • 3. Completely remove cell growth media from microplate and replace with 25 μl loading buffer • 4. Incubate Microplate at room temperature, protected form light, for 90 min • 5. Remove loading buffer and replace with 25 μl 1× Assay Buffer±test compound. • 6. Incubate microplate at room temperature, protected from light, for 30 min • 7. At FLIPR-Tetra 384: Add stimulant (Thallium/Potassium) solution to microplate and monitor fluorescence. Excitation=400 nm, Emission=460 & 580 nm. Collect data for 10 min.

hROMK (hKir1.1), sequence (P48048 whole entry): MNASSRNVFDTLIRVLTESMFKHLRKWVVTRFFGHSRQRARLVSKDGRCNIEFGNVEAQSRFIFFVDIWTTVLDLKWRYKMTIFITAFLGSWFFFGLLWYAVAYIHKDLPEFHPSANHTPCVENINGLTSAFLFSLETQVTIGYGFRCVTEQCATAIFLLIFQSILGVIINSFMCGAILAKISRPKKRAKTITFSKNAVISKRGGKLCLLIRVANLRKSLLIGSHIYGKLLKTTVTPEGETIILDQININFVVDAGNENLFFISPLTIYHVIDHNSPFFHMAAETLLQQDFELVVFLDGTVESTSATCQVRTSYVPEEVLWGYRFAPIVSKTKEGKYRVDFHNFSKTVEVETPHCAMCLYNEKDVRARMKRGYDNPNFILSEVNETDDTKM

Structure (SMILES) | IC50 [nM]
CC1=C(N2CCC3(CCN(C[C@H](O)c4ccc5c(c4C)COC5=O)CC3F)C2=O)COC1=O (single isomer, unassigned) [Example 27] | 210
CC1=C(N2CCC3(CCN(C[C@H](O)c4ccc5c(c4C)COC5=O)CC3F)C2=O)COC1=O (single isomer, unassigned) [Example 28] | 190
CC1=C(N2C(=O)C3(CCN(C[C@H](O)c4ccc5c(c4C)COC5=O)CC3)CC2C)COC1=O (single isomer, unassigned) [Example 29] | 70
Cc1c([C@@H](O)CN2C3CCC2CC2(CC(C)N(C4=CC(=O)OC4)C2=O)C3)ccc2c1COC2=O (single isomer, unassigned) [Example 40] | 20
Cc1c([C@H](O)CN2C3CCC2CC2(CC(C)N(C4=CC(=O)OC4)C2=O)C3)ccc2c1COC2=O (single isomer, unassigned) [Example 42] | 100
CCC1CC2(CCN(C[C@H](O)c3ccc4c(c3C)COC4=O)CC2)C(=O)N1C1=CC(=O)OC1 (single isomer, unassigned) [Example 67] | 20
CCc1c(C(O)CN2CCC3(CC2)CCN(C2=C(C)C(=O)OC2)C3=O)ccc2c1COC2=O (single isomer, unassigned) [Example 74] | 200
CC1=C(N2CCC3(CCN(CC(O)c4ccc5c(c4C4CC4)COC5=O)CC3)C2=O)COC1=O (single isomer, unassigned) [Example 77] | 240
CC1=C(N2CCC3(CCN(CC(O)c4ccc5c(c4Cl)COC5=O)CC3)C2=O)COC1=O (single isomer, unassigned) [Example 78] | 270
CC1=C(N2CCC3(CCN(CC(O)c4ccc5c(c4F)COC5=O)CC3)C2=O)COC1=O (single isomer, unassigned) [Example 81] | 190
CC1=C(N2CCC3(CCN(C(CO)Cc4ccc5c(c4C)COC5=O)CC3)C2=O)COC1 (single isomer, unassigned) [Example 84A] | 60
CC1=C(N2CCC3(CCN(C(CO)Cc4ccc5c(c4C)COC5=O)CC3)C2=O)COC1 (single isomer, unassigned) [Example 84B] | 70
CC1=C(N2CCC3(CCN(C(C)(C)C(O)c4ccc5c(c4C)COC5=O)CC3)C2=O)COC1=O (single isomer, unassigned) [Example 85A] | 120
CC1=C(N2CCC3(CCN(C(C)(C)C(O)c4ccc5c(c4C)COC5=O)CC3)C2=O)COC1=O (single isomer, unassigned) [Example 85B] | 10
CC1=C(N2CCC3(CCN(CCc4ccc5c(c4C)COC5=O)CC3)C2=O)COC1=O [Example 1, 8-(2-(4-methyl-1-oxo-1,3-dihydroisobenzofuran-5-yl)ethyl)-2-(4-methyl-5-oxo-2,5-dihydrofuran-3-yl)-2,8-diazaspiro[4.5]decan-1-one] | 10
CO[C@@H](CN1CCC2(CC1)C[C@H](C)N(C1=CC(=O)OC1)C2=O)c1ccc2c(c1C)COC2=O [Example 2] | 50
Cc1c([C@@H](O)CN2CCC3(CC2)CC(C)N(C2=CC(=O)OC2)C3=O)ccc2c1COC2=O (stereo partly drawn) [Example 6, 8-((R)-2-Hydroxy-2-(4-methyl-1-oxo-1,3-dihydroisobenzofuran-5-yl)ethyl)-3-methyl-2-(5-oxo-2,5-dihydrofuran-3-yl)-2,8-diazaspiro[4.5]decan-1-one] | 30
Cc1c([C@@H](O)CN2CCC3(CC2)C[C@@H](C)N(C2=CC(=O)OC2)C3=O)ccc2c1COC2=O [Example 6A] | 20

Structure (SMILES) | IC50 [nM]
CC1=C(N2CCC3(CCN(C[C@@H](O)c4ccc5c(c4C)COC5=O)CC3)C2=O)COC1=O [Example 8, 8-[(2S)-2-hydroxy-2-(4-methyl-1-oxo-1,3-dihydro-2-benzofuran-5-yl)ethyl]-2-(4-methyl-5-oxo-2,5-dihydrofuran-3-yl)-2,8-diazaspiro[4.5]decan-1-one] | 30
CC1=C(N2CCC3(CCN(C[C@H](O)c4ccc5c(c4C)COC5=O)CC3O)C2=O)COC1=O (stereo partly drawn) [Example 26] | 230
Cc1c([C@@H](O)CN2CCC3(CC2)CCN(C2=C(C4CC4)C(=O)OC2)C3=O)ccc2c1COC2=O [Example 31] | 40
CC1=C(N2CC(=O)C3(CCN(C[C@H](O)c4ccc5c(c4C)COC5=O)CC3)C2=O)COC1=O [Example 36] | 30
CC1=C(N2CCC3(CCN(C[C@@H](O)c4cc5c(cc4C)C(=O)OC5)CC3)C2=O)COC1=O [Example 37] | 30
CC1=C(N2CCC3(CCN(C[C@H](O)c4cc5c(cc4C)C(=O)OC5)CC3)C2=O)COC1=O [Example 38] | 20
Cc1c([C@@H](O)CN2C3CCC2CC2(CC(C)N(C4=CC(=O)OC4)C2=O)C3)ccc2c1COC2=O (stereo partly drawn) [Example 39] | 20
Cc1c([C@H](O)CN2C3CCC2CC2(CC(C)N(C4=CC(=O)OC4)C2=O)C3)ccc2c1COC2=O (stereo partly drawn) [Example 41] | 240
Cc1c([C@@H](O)CN2CCC3(C=CN(C4=CC(=O)OC4)C3=O)CC2)ccc2c1COC2=O [Example 44] | 40
CC1=C(N2CCC3(CC4CN(C)CC(C3)N4C[C@H](O)c3ccc4c(c3C)COC4=O)C2=O)COC1=O (stereo partly drawn) [Example 45] | 160
CC1=C(N2CCC3(CC4CN(C)CC(C3)N4C[C@@H](O)c3ccc4c(c3C)COC4=O)C2=O)COC1=O (stereo partly drawn) [Example 46] | 140
CC1=C(N2CCC3(CCN(C[C@H](F)c4ccc5c(c4C)COC5=O)CC3)C2=O)COC1=O [Example 47, 8-[(2R)-2-fluoro-2-(4-methyl-1-oxo-1,3-dihydro-2-benzofuran-5-yl)ethyl]-2-(4-methyl-5-oxo-2,5-dihydrofuran-3-yl)-2,8-diazaspiro[4.5]decan-1-one] | 40
CC1=C(N2CCC3(CCN(C[C@@H](F)c4ccc5c(c4C)COC5=O)CC3)C2=O)COC1=O [Example 48, 8-[(2S)-2-fluoro-2-(4-methyl-1-oxo-1,3-dihydro-2-benzofuran-5-yl)ethyl]-2-(4-methyl-5-oxo-2,5-dihydrofuran-3-yl)-2,8-diazaspiro[4.5]decan-1-one] | 20
CO[C@@H](CN1CCC2(CC1)CCN(C1=C(C)C(=O)OC1)C2=O)c1ccc2c(c1C)COC2=O [Example 49, 8-[(2R)-2-methoxy-2-(4-methyl-1-oxo-1,3-dihydro-2-benzofuran-5-yl)ethyl]-2-(4-methyl-5-oxo-2,5-dihydrofuran-3-yl)-1-oxo-2-aza-8-azoniaspiro[4.5]decane] | 40
CCO[C@@H](CN1CCC2(CC1)CCN(C1=C(C)C(=O)OC1)C2=O)c1ccc2c(c1C)COC2=O [Example 50, 8-[(2R)-2-ethoxy-2-(4-methyl-1-oxo-1,3-dihydro-2-benzofuran-5-yl)ethyl]-2-(4-methyl-5-oxo-2,5-dihydrofuran-3-yl)-2,8-diazaspiro[4.5]decan-1-one] | 30
CC1=C(N2CCC3(CCN([C@@H](C)[C@H](O)c4ccc5c(c4C)COC5=O)CC3)C2=O)COC1=O [Example 53A] | 10
CC1=C(N2CCC3(CCN(CC(NC4CC4)c4ccc5c(c4C)COC5=O)CC3)C2=O)COC1=O (stereo not drawn) [Example 54, 8-(2-(cyclopropylamino)-2-(4-methyl-1-oxo-1,3-dihydroisobenzofuran-5-yl)ethyl)-2-(4-methyl-5-oxo-2,5-dihydrofuran-3-yl)-2,8-diazaspiro[4.5]decan-1-one] | 150
CC1=C(N2CCC3(CCN(CC(NCC(F)F)c4ccc5c(c4C)COC5=O)CC3)C2=O)COC1=O (stereo not drawn) [Example 55] | 250
